Results on five compounds are retold here after patent US9700638B2, “Near infrared label and methods of use thereof” (priority 2013, dated 2017).

For data set [1] the following is noted: reference chromophores with known molar absorptivity; cited from earlier work.
A short description of data set [2]: Chemical and photochemical stability of the fluorophore. Type of data set: physicochemical.
Data set [3] in a line: Light absorption / molar absorptivity of DDAO and 7-aminoDDAO derivatives. Type of data set: physicochemical. The settings on record: for light absorption maximum: FIG. 4, 50% MeOH. The procedure: (§1) The molar extinction of 7-aminoDDAO (55 000 M-1 cm-1) was determined by the attachment of reference chromophores with known molar absorptivity (Table 1). Light absorption spectra of the labeled caspofungin and posaconazole derivatives were close to superposition of those for the 7-(4-aminobutyl)amino-DDAO and the corresponding drugs, which is illustrated in FIG. 4 on the example of posaconazole derivative. […] Thus, excitation and emission maxima for DDAO were 653 nm and 660 nm correspondingly, while for 7-(4-aminobutyl)amino-DDAO they shifted to 671 nm and 679 nm correspondingly. […] Remarkably, the shape of the excitation spectrum curve for ionized form of DDAO was the same in 50% and 100% methanol.

Data set [4] can be described thus: Fluorescence spectra, relative brightness and quantum yield in various solvents. As to conditions: for QY (50% MeOH), quantum yield / RB (50% MeOH), relative brightness / QY (MeOH), quantum yield / RB (MeOH), relative brightness / QY (H20), quantum yield / RB (H2O), relative brightness: 1 μM; for increase of light emission in 50% methanol compared to water: 50% methanol vs water; for QY (H20), quantum yield / RB (H2O), relative brightness: H2O; for increase of emission in 100% methanol compared to 50% methanol: 100% methanol vs 50% methanol. It is filed as physicochemical. The arrangement: brightness: unit not given here. The procedure: as §1
However, posaconazole derivative behaved differently. […] The suppression of the fluorophore light emission in posaconazole derivative is likely due to the presence of extended light-absorbing moiety that can stack to the fluorophore, causing contact quenching (FIG. 7). […] in fluorescence is expected upon interaction of the labeled drug with its cellular target, whereby stacking interactions of the fluorophore with the drug moiety have to be destroyed (FIG. 7B). This beneficial “signaling” effect is expected to greatly increase the contrast of imaging by minimizing the background signal of non-bound compound, which remains “dark”.
Table 2 illustrates light emission properties of DDAO-based diagnostic probes and reference compounds, and presents the data on quantum yield and brightness for 7-aminoDDAO compound at various conditions. These parameters were determined using a reference fluorophore Cy5.5, (which has the excitation and emission maxima nearly identical to those for 7-aminoDDAO) and published data for original DDAO fluorophore. […] This was perhaps due to higher light absorptivity and higher quantum yield of the amino-derivative. The difference in brightness further increased in 50% methanol (21 000 and 9000 correspondingly).

A further data set has as its system Candida albicans. Kind of data set: Imaging of fungal infection in mice kidneys by whole-body fluorescence imaging. Type of data set: in vivo. The procedure: Mice were infected via intravenous inoculation with 5*10^5 CFU of wild type Candida albicans and an infection that occurs most prominently in the kidneys. After 48 hours post infection, a fixed concentration of 0.12 ug/mL of CSF-DDAO is added via tail vein injection at 0, 2, 4 and 8 hours to assess the optimal time for visualization of the infection. At each time point, the mice were imaged in a non-invasive whole-body animal imaging system to detect fluorescence energy. Animals infected with Candida albicans show proliferation of the fungal infection in the kidneys after 48 hours. […] Maximum labeling occurred at 8 hours. […] At the same time no signal was detected in uninfected and/or untreated organs.

Where [5] appears, read: listed as 7-(4-aminobutyl)amino-DDAO.

Like-named read-outs stand apart in the source and are kept apart here.

Consider `Cc1cc(C)n2c1C=C1C=CC(CCC(=O)O)=[N+]1[B-]2(F)F` [BODIPY-FL], for which the “Molar absorption for attached compounds” value in data set [1] was 82,000 M^−1cm^−1.

As to `CC1(C)C2=C(Cl)C(=O)C(Cl)=CC2=Nc2ccc(NCCCCN)cc21` [DDAO NH2, DDAO—NH—(CH2)4—NH2], the “chemical and photochemical stability” value in data set [2] was “chemically and photochemically stable”. Also, in data set [3], the molar absorbance was 53,000, the ε was 53,000 M^−1cm^−1 and the light absorption maximum stood at 673 nm. Further, the “Calculated molar absorption for DDAO residue” value in data set [3] (attached compound BODIPY-FL) is on record as 70,000 M^−1cm^−1. Besides, in data set [3] (attached compound DNP), the “Calculated molar absorption for DDAO residue” value is recorded as 32,000 M^−1cm^−1. Further, the “Calculated molar absorption for DDAO residue” value in data set [3] (attached compound Posaconazole) is reported as 59,000 M^−1cm^−1. In data set [3] (average over three attached chromophores), the “Calculated molar absorption for DDAO residue, Average” value is listed as 53,000 M^−1cm^−1. Besides, in data set [3] (determined by attachment of reference chromophores), the molar extinction is 55 000 M-1 cm-1. Moreover, in data set [4], the brightness is 6,000; the long-wavelength emission range is listed as 640-700 nm; the “pH dependence of the fluorophore” value is “pH-independent”; the “QY (50% MeOH), quantum yield” value turned out to be 0.40. Moreover, in data set [4], the “RB (50% MeOH), relative brightness” value was 21,000; the “increase of light emission in 50% methanol compared to water” value is “ca. 2.5 fold”; the “QY (H20), quantum yield” value was 0.19; the “RB (H2O), relative brightness” value was 10,000. Besides, in data set [4] (listed as 7-aminoDDAO), the “RB (50% MeOH), relative brightness” value is 21 000; the “RB (H2O), relative brightness” value is listed as 10 000; the emission maximum was 680 nm. Also, in data set [4] (100% MeOH), the “emission maximum in 100% MeOH” value is 670 nm; the “excitation maximum in 100% MeOH” value came out at 620 nm; the “QY (MeOH), quantum yield” value stood at 0.25; the “RB (MeOH), relative brightness” value is given as 13,000. Also, in data set [4] (100% MeOH vs 50% methanol), the “drop of light emission intensity in 100% MeOH” value came to 1.7 fold. Moreover, the “RB (MeOH), relative brightness” value in data set [4] (100% MeOH, listed as 7-aminoDDAO) is recorded as 13 000. Further, in data set [4] (setting [5]), the emission maximum amounted to 679 nm and the excitation maximum is 671 nm. In data set [4] (listed as 7-aminoDDAP), this compound registered an emission maximum of 680 nm and an excitation maximum of 670 nm.

Regarding `CC1(C)C2=C(Cl)C(=O)C(Cl)=CC2=Nc2ccc(O)cc21` [DDAO, 7-hydroxy-9H-(1,3-dichloro-9,9-dimethylacridin-2-one), reference compound], in data set [3], the molar absorbance is 48,000, the ε is reported as 48,000 M^−1cm^−1 and the light absorption maximum came to 653 nm. Moreover, in data set [4], the brightness is given as 3,600, the emission maximum was found to be 660 nm, the excitation maximum turned out to be 653 nm and the “pH dependence of the fluorophore” value is recorded as “pH-dependent”. Moreover, in data set [4], the “QY (50% MeOH), quantum yield” value amounted to 0.19; the “RB (50% MeOH), relative brightness” value amounted to 9000; the “increase of emission in 100% methanol compared to 50% methanol” value was found to be 1.3 fold; the “QY (H20), quantum yield” value worked out at 0.125. In addition, the “RB (H2O), relative brightness” value in data set [4] is given as 6 000. In addition, in data set [4] (listed as DDAO (pH 9.0)), the “RB (50% MeOH), relative brightness” value is reported as 9,000 and the “RB (H2O), relative brightness” value was 6,000. In addition, in data set [4] (100% MeOH), the “QY (MeOH), quantum yield” value was determined as 0.25 and the “RB (MeOH), relative brightness” value is 12 000. The “RB (MeOH), relative brightness” value in data set [4] (100% MeOH, listed as DDAO (pH 9.0)) is reported as 12,000.

In the case of `CC[C@@H]([C@H](C)O)n1ncn(-c2ccc(N3CCN(c4ccc(OC[C@@H]5CO[C@@](Cn6cncn6)(c6ccc(F)cc6F)C5)cc4)CC3)cc2)c1=O` [Posaconazole], in data set [1], the “Molar absorption for attached compounds” value was 34,000 M^−1cm^−1.

Take “DDAO—NH—(CH2)4—NCS-Caspofungin [DDAO Casp]”: the “fluorescent signal of the infected organ (kidney)” value with Candida albicans (C. albicans infected mice kidney, FIG. 8) is reported as “bright fluorescent signal”. In the data set with Candida albicans (infected mice, whole body imaging at 0, 2, 4 and 8 hours), the “labeling of cells in the target organs over time” value is given as “progressive labeling of cells in the target organs over time”. The “time of maximum labeling after probe injection” value in the data set with Candida albicans (mice 48 h post i.v. infection with C. albicans, 0.12 ug/mL via tail vein, whole body imaging) is 8 h. Besides, the “accumulation in the kidneys in the absence of infection” value in the data set with Candida albicans (uninfected mice) is “did not accumulate in the kidneys”. Further, in data set [3], the ε is 53,000 M^−1cm^−1. Further, in data set [4], the “QY (50% MeOH), quantum yield” value amounted to 0.26; the “RB (50% MeOH), relative brightness” value was 13,800; the “increase of light emission in 50% methanol compared to water” value worked out at 2 fold; the “increase of emission in 100% methanol compared to 50% methanol” value is on record as 1.3 fold. In addition, in data set [4], the “QY (H20), quantum yield” value was determined as 0.11 and the “RB (H2O), relative brightness” value is listed as 6,000. Moreover, in data set [4] (100% MeOH), the “QY (MeOH), quantum yield” value is 0.42 and the “RB (MeOH), relative brightness” value is given as 22,000.
